Reference: publication PMC12423301, “Astrocytic monoamine oxidase B (MAOB)–gamma-aminobutyric acid (GABA) axis as a molecular brake on repair following spinal cord injury” (Signal Transduction and Targeted Therapy, 2025)
“Also recorded” adds a separate entry of the source.

Experiments:
rat SCI model [1] = experiment: Immunohistochemistry of injured rat spinal cord; assay type: in vivo, Sprague-Dawley (SD) rats
Method: Immunohistochemistry was performed as previously described.[70] The tissue sections were blocked and treated with primary antibodies. After overnight incubation at 4 °C, species-specific fluorescent secondary antibodies were applied for visualization. The tissue sections were then stained with 4’,6-diamidino-2-phenylindole (DAPI) during mounting. This protocol allows a detailed assessment of various cellular markers involved in SCI and recovery processes.
The secondary antibodies used included FITC-donkey anti-mouse IgG (H + L) (1:150, 715-095-151), Cy^TM3-donkey anti-mouse IgG (H + L) (1:600, 715-165-151), FITC-donkey anti-rabbit IgG (H + L) (1:150, 711-095-152), Alexa Fluor 594-donkey anti-rabbit IgG (H + L) (1:500, 711-585-152), Alexa Fluor 647-donkey anti-rabbit IgG (H + L) (1:500, 711-605-152), Cy^TM3-donkey anti-chicken IgG (H + L) (1:600, 703-165-155), DyLightTM405-donkey anti-chicken IgY + + (H + L) (1:600, 703-476-155), Alexa Fluor 488-donkey anti-chicken IgY (IgG) (H + L) (1:500, 703-545-155), Alexa Fluor 594-donkey anti-chicken IgY (IgG) (H + L) (1:500, 703-585-155), Alexa Fluor 488-donkey anti-goat IgG (H + L) (1:500, 705-545-003), and Alexa Fluor 647-donkey anti-goat IgG (H + L) (1:300, 705-606-147). All secondary antibodies were purchased from Jackson ImmunoResearch.
The fluorescence images were observed via confocal laser scanning microscopy (LSM700 or LSM710, Carl Zeiss), and analyzed via the ImageJ (NIH) software. For visualizing the mCh-positive signals of proliferating or proliferated cells, Z-stack images acquired in 1-μm steps were processed for 3D surface rendering of mCh-positive signals using IMARIS software (version 9.0.1, Oxford Instruments).

rat SCI model [2] = experiment: TEM and TB staining of rat spinal cord (myelination); assay type: in vivo, Sprague-Dawley (SD) rats
Method: Spinal cord tissues were prefixed in Karnovsky’s fixative (2% glutaraldehyde, 2% paraformaldehyde in 0.1 M phosphate buffer) overnight at 4 °C. After postfixation in 1% osmium tetroxide (OsO4), the samples were dehydrated through a graded ethanol series and embedded in epoxy resin.
For TB staining, 250–300 nm semi-thin sections were obtained via an ultramicrotome (Leica Ultracut UCT, Leica Microsystems, Austria), stained with 0.5% toluidine blue, and imaged using a light microscope (Olympus IX71).
For TEM, 80–100 nm ultrathin sections were cut using a diamond knife (Diatome, Switzerland), mounted on 300-mesh Gilder grids, and stained with 6% uranyl acetate and lead citrate. Images were acquired using a transmission electron microscope (JEM 1011, JEOL, Tokyo, Japan) as previously described.
All TB and TEM analyses were performed on spinal cord tissues collected at the lesion epicenter, where myelination is most affected by injury.

[3] = Genetic toxicology (reverse mutation, chromosomal aberration, micronucleus)
Method: Protocol No. NB_KDS_ADP1_21 Confidential administration of the test substance to rats at a dose of 50-200 mg/kg daily for 2 weeks, there were no deaths.
As a result of oral administration to rats at doses of 30, 50, 75 and 100 mg/kg once daily for 4 weeks, […]
testis, epididymis and lungs. Renal epithelial hyperplasia and inflammatory cells infiltration in the renal pelvis observed in the male and female dose groups of 75 mg/kg or more, germ cell degeneration/loss and seminiferous tubules atrophy observed in the male dose groups of 75 mg/kg or more, and vacuole/degeneration of outer medullary tubules and basophilic tubules observed in the female dose groups were judged to be adverse effects due to administration of the test substance. Proximal tubular hyaline granules in the kidney, basophilic tubules, testicular germ cell degeneration/loss, and alveolar macrophage aggregation in the lungs(females) were observed even after a 2-week recovery period. Accordingly, in repeated administrations of rats for 4 weeks, the NOAEL(No Observed Adverse Effect Level) was determined to be 50 mg/kg/day for males and 30 mg/kg for females. As a result of repeated oral administrations of 0, 25, 50 or 100 mg/kg/day for 2 weeks to Cynomolgus […]
male dose group of 50 mg/kg/day, and a distal tubule/collecting duct dilatation and papillary duct epithelial cell […]
the NOAEL was judged as 40 mg/kg for both males and females. As a result of the safety pharmacology test, […]
the genetic toxicology, the reverse mutation test, the chromosomal aberration assay, and the micronucleus assay […]
In a pharmacokinetic study, plasma PK parameters were measured after a single oral administration of […]
a result of measuring excretion into urine, feces, expiration, and bile, 6.9% was excreted in urine and 48.5% in feces, respectively, up to 168 hours after administration. Excretion to air through respiration was about 0.0% until 48 hours after administration, and 44.1% of the administered radioactivity concentration was present in the body (carcass). […]

[4] = 14C radiolabeled KDS2010 disposition and excretion in rats; assay type: in vivo, SD rats
Method: Protocol No. NB_KDS_ADP1_21 Confidential
In a pharmacokinetic study, plasma PK parameters were measured after a single oral administration of
5.2. Rationale for Selection of Dose and Duration of Dosing
According to the FDA guideline (Estimating the Maximum Safe Starting Dose in Initial Clinical Trials for […]

[5] = Preclinical pharmacokinetics in monkeys; conditions: cynomolgus monkey, in vivo, iv, 5 mg/kg
in vivo = conditions: both, cynomolgus monkey, po
[6] = SCI+KDS 10mpk, 20mpk, and 30mpk vs SCI+V, PI 10w
[7] = SCI+KDS 1d/Re vs SCI+V and SCI+KDS 1d/No, PI 10w
[8] = BDC rats, until 48 hours after oral administration
[9] = up to 168 hours after administration

With `CS(=O)(=O)O.C[C@H](NCc1ccc(-c2ccc(C(F)(F)F)cc2)cc1)C(N)=O` [KDS2010, (S)-2-(((4’-Trifluoromethylbiphenyl-4-yl)methyl)amino)propanamide methane-sulfonate] the GFAP intensity (rat SCI model [1]; KDS2010 treatment compared with SCI + V) was “significantly reduced”, the “intensity of TrkB in neurons, oligodendrocytes, and astrocytes” value (rat SCI model [1]; MAOB inhibition from the subacute phase, PI 10w) was “significantly increased” and the “neurons positive for both Ki67 and NeuN” value (rat SCI model [1]; SCI + KDS 2w vs SCI + V, PI 10w) was “significantly increased; also recorded: significant increase”. The “intensity of GABA in GFAP-positive astrocytes” value (rat SCI model [1]; SCI + KDS 2w, 10 mpk, PI 10w) was “significantly recovered; also recorded: significantly attenuated”, the MAP2 intensity (rat SCI model [1]; SCI + KDS 2w, PI 10w) was “fully restored” and the MBP intensity (rat SCI model [1]; SCI + KDS 2w, PI 10w) was “significant recovery”. For the same compound, the “expression of astrocytic GFAP and MAOB” value (rat SCI model [1]; SCI + KDS 2w, PI 10w) was “returned to normal levels”, the “intensity of proBDNF in astrocytes and neurons” value (rat SCI model [1]; SCI + KDS 2w, PI 10w) was “significantly increased” and the “number of NeuN-positive neurons” value (rat SCI model [1]; SCI + KDS 2w, PI 10w) was “significant recovery”. The “oligodendrocytes positive for both Ki67 and MBP” value (rat SCI model [1]; SCI + KDS 2w, PI 10w) was “substantial population; also recorded: significantly increased”, the “intensity of GABA and astrocytic DAO” value (rat SCI model [1]; SCI+KDS 6w) was “significantly reduced” and the “intensity of proBDNF” value (rat SCI model [1]; SCI+KDS 6w vs SCI+V) was “significantly increased”. The “astrocytic GFAP and MAOB expression” value (rat SCI model [1]; SCI+KDS 6w vs SCI+V, PI 14w) was “significantly decreased”, the “intensity of MAP2” value (rat SCI model [1]; SCI+KDS 6w vs SCI+V, PI 14w) was “significant increase” and the “intensity of MBP-positive TrkB” value (rat SCI model [1]; SCI+KDS 6w vs SCI+V, PI 14w) was “significantly increased”. The “intensities of GFAP and GABA” value (rat SCI model [1]; [6]) was “significantly reduced”, the “intensity of MAP2” value (rat SCI model [1]; [6]) was “significant increase” and the “intensity of MBP” value (rat SCI model [1]; [6]) was “significant recovery”. The “intensity of MBP-positive TrkB” value (rat SCI model [1]; [6]) was “significant recovery”, the “intensity of astrocytic DAO” value (rat SCI model [1]; [6]) was “significantly decreased” and the “intensity of proBDNF” value (rat SCI model [1]; [6]) was “significantly increased”. The GFAP levels (rat SCI model [1]; SCI+KDS 1d/No) was “persistently high GFAP levels”, the “alternative diamine oxidase (DAO) pathway” value (rat SCI model [1]; SCI+KDS 1d/No) was “activated” and the “intensity of GABA and astrocytic DAO” value (rat SCI model [1]; SCI+KDS 1d/Re) was “significantly reduced”. The “intensity of proBDNF” value (rat SCI model [1]; SCI+KDS 1d/Re vs SCI+V and SCI+KDS 1d/No) was “significantly increased”, the “astrocytic GFAP and MAOB expression” value (rat SCI model [1]; [7]) was “significantly decreased” and the “intensity of MAP2” value (rat SCI model [1]; [7]) was “significant increase”. For the same compound, the “astrocytic MAOB expression” value (rat SCI model [1]; all doses (10mpk, 20mpk, 30mpk) vs SCI+V, PI 10w) was “significant reduction”, the “expression of CSPGs (neurocan, phosphacan)” value (rat SCI model [1]; rat SCI, KDS2010 treatment) was “notably reduced” and the “myelination (TEM)” value (rat SCI model [2]; SCI + KDS 2w at PI 10w) was “fully recovered”. The “number of myelinated axons” value (rat SCI model [2]; SCI + KDS 2w, PI 2-10w) was “gradual increase”, the density of cavities (rat SCI model [2]; SCI + KDS 2w, TB staining, PI 2-10w) was “gradual decrease” and the chromosomal aberration assay [3] was “negative”. For the same compound, the micronucleus assay [3] was “negative”, the reverse mutation test [3] was “negative” and the “administered radioactivity present in the body (carcass)” value ([4]; 14C radiolabeled, oral 10 mg/kg) was 44.1%. The excreted in bile ([4]; BDC (bile duct-cannulated) rats, until 48 hours after oral administration) was 71.5%, the excreted in feces [4, 8] was 6.0% and the excreted in urine [4, 8] was 6.8%. For the same compound, the “excretion to air through respiration” value ([4]; until 48 hours after administration) was “about 0.0%”, the excreted in feces [4, 9] was 48.5% and the excreted in urine [4, 9] was 6.9%. For the same compound, the AUC(0-inf) [5] was 17900 ± 2460 ng·h/mL, the half-life ([5]; t1/2) was 8.65 ± 0.97 h and the NOAEL at 4 weeks (in vivo) was 40 mg/kg.
